Laboratory results as given in patent US7459552B2, “Method for producing cyclic diamine derivative or salt thereof” (Kowa Co., Ltd., priority 2003, dated 2008).

Compound | melting point [°C]
CSc1cc(C)nc(SC)c1NC(=O)CN1CCN(CCSc2nc3cc(C(F)(F)F)ccc3o2)CC1 [Example 4, 2-[4-[2-(5-trifluoromethylbenzoxazol-2-ylthio)ethyl]piperazin-1-yl]-N-[2,4-bis(methylthio)-6-methylpyridin-3-yl]acetamide] | 103 to 104
Cc1cc(OCC(F)(F)F)c(NC(=O)CN2CCN(CCSc3nc4cc(F)c(F)cc4[nH]3)CC2)c(OCC(F)(F)F)n1 [Example 5, 2-[4-[2-(5,6-difluorobenzimidazol-2-ylthio)ethyl]piperazin-1-yl]-N-[2,4-bis(2,2,2-trifluoroethoxy)-6-methylpyridin-3-yl]acetamide] | 191 to 192
Cc1cc(OCC(F)(F)F)c(NC(=O)CN2CCN(CCSc3nc4ccccc4o3)CC2)c(OCC(F)(F)F)n1 [Example 7, 2-[4-[2-(benzoxazol-2-ylthio)ethyl]piperazin-1-yl]-N-[2,4-bis(2,2,2-trifluoroethoxy)-6-methylpyridin-3-yl]acetamide] | 141 to 142
Cc1cc(C(F)(F)F)c(NC(=O)CN2CCN(CCSc3nc4ccccc4s3)CC2)c(C)n1 [Example 8, 2-[4-[2-(benzothiazol-2-ylthio)ethyl]piperazin-1-yl]-N-[2,6-dimethyl-4-trifluoromethyl-pyridin-3-yl]acetamide] | 107 to 108
